Legend:
DLD1 NRF2-WT [1] = conditions: 72 h; CellTiter-Glo viability
Outline: (§1)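 EC50 and drug sensitivity score, the latter a normalised area under the curve, were calculated from logistic dose-response fits. The fits had four parameters and used CellTiter-Glo viability data read on a Pherastar FS reader 72 h after treatment, normalised to vehicle wells and 100-μM positive-control wells. Treated cells were isogenic DLD1 colorectal cancer cells, NRF2 wild-type or CRISPR gain-of-function, exposed in 384-well plates to library compounds at 5 concentrations spanning a 10,000-fold range.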

DLD1 NRF2-WT [2] = assay: drug sensitivity score (DSS) viability (DSS score); higher = more sensitive; extreme values may be limits of the assay; conditions: 72 h; CellTiter-Glo viability
Outline: as §1

DLD1 NRF2-GOF [3] = assay: drug sensitivity score (DSS) cytotoxicity (DSS score); higher = more toxic; extreme values may be limits of the assay; conditions: 72 h; CellTox Green cytotoxicity
Outline: (§2)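 After growth in DMEM with 10% FBS, NRF2 wild-type and CRISPR-edited isogenic DLD1 cells were seeded in 384-well plates and given library compounds at 5 concentrations across a 10,000-fold range. Fluorescence from CellTox Green was taken on a Pherastar FS reader after 72 h and normalised against vehicle wells and 100-μM positive-control wells. From logistic dose-response fits of cytotoxicity came the TC50 and the drug sensitivity score, a normalised area under the curve.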

DLD1 NRF2-WT [4] = assay: as above; conditions: 72 h; CellTox Green cytotoxicity
Outline: as §2

DLD1 NRF2-GOF [5] = assay: TC50 cytotoxicity; higher = less toxic; conditions: 72 h; CellTox Green cytotoxicity
Outline: as §2

DLD1 NRF2-WT [6] = assay: TC50 cytotoxicity; higher = less toxic; conditions: 72 h; CellTox Green cytotoxicity
Outline: as §2

EC50 viability (DLD1 NRF2-WT [1]) | SMILES | drug sensitivity score (DLD1 NRF2-WT [2]) | drug sensitivity score (DLD1 NRF2-GOF [3]) | drug sensitivity score (DLD1 NRF2-WT [4]) | TC50 cytotoxicity (DLD1 NRF2-GOF [5]) | TC50 cytotoxicity (DLD1 NRF2-WT [6])
0.273 µM | Cc1cc(OCc2nnc(SC3CCCC3)n2-c2cccnc2)ccc1-c1ccc(S(C)(=O)=O)cc1 [NMS-873] | 5.5 |  |  |  | 
> 1 µM | C[C@@H](Oc1cc(-c2cnn(C3CCNCC3)c2)cnc1N)c1c(Cl)ccc(F)c1Cl [Crizotinib] | 0 |  |  |  | 
0.855 µM | CC(C)n1cnc2c(NCCc3ccc(O)cc3)nc(-c3csc4ccccc34)nc21 [StemRegenin 1] | 3.9 |  |  |  | 
 | CC(C)N(CCCNC(=O)Nc1ccc(C(C)(C)C)cc1)C[C@H]1O[C@@H](n2cc(Br)c3c(N)ncnc32)[C@H](O)[C@@H]1O [SGC0946] | 0.9 | 0 | 0 | > 10 µM | > 10 µM
 | CO[C@H]1C[C@@H]2CC[C@@H](C)[C@@](O)(O2)C(=O)C(=O)N2CCCC[C@H]2C(=O)O[C@H]([C@H](C)C[C@@H]2CC[C@@H](O)[C@H](OC)C2)CC(=O)[C@H](C)/C=C(\C)[C@@H](O)[C@@H](OC)C(=O)[C@H](C)C[C@H](C)/C=C/C=C/C=C/1C [Sirolimus] | 3.1 |  |  |  | 
 | Cc1cc2c(C(=O)NC[C@H](C)c3ccccc3)c(O)c(O)cc2c(O)c1-c1c(C)cc2c(C(=O)NC[C@H](C)c3ccccc3)c(O)c(O)cc2c1O [Sabutoclax] |  | 0 | 0 | > 25 µM | > 25 µM
 | C[C@H]1CNCCCN1S(=O)(=O)c1cccc2cncc(F)c12 [Ripasudil] |  | 0 | 0 | > 10 µM | > 10 µM
 | Cc1cc(-c2ncc(CC(=O)Nc3ccc(-c4cnccn4)cn3)cc2C)ccn1 [NVP-LGK974] |  | 0 | 0 | > 10 µM | > 10 µM
 | CCN(CC)Cc1ccc2cc(COC(=O)Nc3ccc(C(=O)NO)cc3)ccc2c1 [Givinostat] |  | 0 | 1.6 | > 1 µM | 0.344 µM
 | Cc1ccc(-c2cc(C(F)(F)F)nn2-c2ccc(S(N)(=O)=O)cc2)cc1 [Celecoxib] |  | 0 | 0 | > 10 µM | > 10 µM
 | CC(C)(O)CNc1nc(Nc2ccnc(C(F)(F)F)c2)nc(-c2cccc(C(F)(F)F)n2)n1 [Enasidenib] |  | 0 | 0 | > 10 µM | > 10 µM
 | Cn1nccc1Nc1nccc(-c2ccn([C@H](CO)c3ccc(Cl)c(F)c3)c(=O)c2)n1 [GDC-0994] |  | 0 | 0 | > 10 µM | > 10 µM
 | COCCNCc1ccc(-c2cc3nccc(Oc4ccc(NC(=S)NC(=O)Cc5ccc(F)cc5)cc4F)c3s2)nc1 [Glesatinib] |  | 0 | 0 | > 2.5 µM | > 2.5 µM
 | C[C@]12CC[C@@H]3c4ccc(O)cc4C[C@@H](CCCCCCCCC[S+]([O-])CCCC(F)(F)C(F)(F)F)[C@H]3[C@@H]1CC[C@@H]2O (stereo not given in full) [Fulvestrant] |  | 0 | 0 | > 1 µM | > 1 µM
 | CN1CCN(c2cc(C(=O)Nc3ccc4c(c3)-c3c(c(C(N)=O)nn3-c3ccc(F)cc3)CC4)c(Cl)cn2)CC1 [PHA 408] |  | 0 | 0 | > 10 µM | > 10 µM
 | Nc1nc(Nc2ccc3c(c2)CC[C@@H](N2CCCC2)CC3)nn1-c1cc2c(nn1)-c1ccccc1CCC2 [BGB324] |  | 0 | 0 | > 10 µM | > 10 µM
 | Cn1cc(-c2ccc(F)c(C(F)(F)F)c2)nc1C1CCN(c2ncnc3[nH]ncc23)CC1 |  | 0 | 0 | > 10 µM | > 10 µM
 | NS(=O)(=O)OC[C@@H]1C[C@@H](n2ccc3c(N[C@H]4CCc5ccccc54)ncnc32)C[C@@H]1O [Pevonedistat] |  | 0 | 0 | > 10 µM | > 10 µM
0.0052 µM | CC[C@@H]1C(=O)N(C)c2cnc(Nc3ccc(C(=O)NC4CCN(C)CC4)cc3OC)nc2N1C1CCCC1 [BI 2536] | 21.8 | 2.3 | 3.1 |  | 0.188 µM
 | COc1ccc(Cn2ccc3ccc(C(=O)NO)cc32)cc1 |  | 0 | 0 | > 10 µM | > 10 µM
 | Cc1c(F)cc(C(=O)NC2CC2)cc1-c1ccc(C(=O)NCC(C)(C)C)cn1 [Losmapimod] |  | 0 | 0 | > 10 µM | > 10 µM
 | CC(C)(C)c1cc(NC(=O)Nc2ccc(-c3cn4c(n3)sc3cc(OCCN5CCOCC5)ccc34)cc2)no1 [Quizartinib] |  | 0 | 0 | > 1 µM | > 1 µM
 | COc1cc2ncnc(Nc3cccc(Cl)c3F)c2cc1OC(=O)N1CCN(C)C[C@H]1C [AZD3759] |  | 0 | 0 | > 1 µM | > 1 µM
